For 16 compounds, IC50 results are on record in paper PMC11002980 (RSC Advances, 2024).

Sequence of EGFR^wt kinase (P00533 25-1210): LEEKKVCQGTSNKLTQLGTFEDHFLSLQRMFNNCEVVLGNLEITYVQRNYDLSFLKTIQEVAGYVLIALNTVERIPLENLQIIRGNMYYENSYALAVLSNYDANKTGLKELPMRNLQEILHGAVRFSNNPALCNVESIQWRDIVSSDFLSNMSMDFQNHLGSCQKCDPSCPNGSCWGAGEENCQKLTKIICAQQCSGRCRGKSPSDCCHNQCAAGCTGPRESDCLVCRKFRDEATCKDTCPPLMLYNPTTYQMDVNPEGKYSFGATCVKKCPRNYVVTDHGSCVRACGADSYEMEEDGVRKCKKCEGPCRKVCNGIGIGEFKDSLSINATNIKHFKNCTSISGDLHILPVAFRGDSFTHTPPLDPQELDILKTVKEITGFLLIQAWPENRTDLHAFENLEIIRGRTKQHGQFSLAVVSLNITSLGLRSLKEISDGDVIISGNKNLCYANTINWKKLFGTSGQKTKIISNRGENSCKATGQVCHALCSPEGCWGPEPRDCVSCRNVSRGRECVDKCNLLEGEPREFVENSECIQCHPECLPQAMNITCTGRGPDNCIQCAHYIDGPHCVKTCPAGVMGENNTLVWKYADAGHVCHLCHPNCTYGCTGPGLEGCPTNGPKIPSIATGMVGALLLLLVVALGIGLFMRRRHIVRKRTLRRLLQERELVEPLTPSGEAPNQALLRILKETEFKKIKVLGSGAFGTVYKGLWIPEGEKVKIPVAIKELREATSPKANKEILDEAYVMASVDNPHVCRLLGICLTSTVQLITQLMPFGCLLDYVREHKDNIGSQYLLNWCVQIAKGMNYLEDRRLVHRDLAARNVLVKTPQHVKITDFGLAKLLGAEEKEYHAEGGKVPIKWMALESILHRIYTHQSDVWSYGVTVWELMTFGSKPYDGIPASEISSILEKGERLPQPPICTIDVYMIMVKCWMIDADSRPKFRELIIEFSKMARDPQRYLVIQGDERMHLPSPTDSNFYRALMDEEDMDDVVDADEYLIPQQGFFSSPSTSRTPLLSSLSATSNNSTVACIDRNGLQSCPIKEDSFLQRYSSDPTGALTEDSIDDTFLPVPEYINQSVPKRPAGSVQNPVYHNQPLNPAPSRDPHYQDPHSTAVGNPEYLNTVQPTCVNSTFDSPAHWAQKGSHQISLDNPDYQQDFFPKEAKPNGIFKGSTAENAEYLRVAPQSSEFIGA

One assay addresses EGFR^wt kinase (Homo sapiens, UniProt P00533). Description: EGFR^wt kinase inhibition assay. In kind it is biochemical.
Conditions: not given
A word on the IC50: it is the concentration that gives 50% inhibition. `COc1cc(NC(=O)C2=C(C)NC(C)=C(C(=O)Nc3cc(OC)c(Cl)cc3OC)C2c2ccccc2)c(OC)cc1Cl` [HD-6, N ^3,N^5-Bis(4-chloro-2,5-dimethoxyphenyl)-2,6-dimethyl-4-phenyl-1,4-dihydropyridine-3,5-dicarboxamide] had an IC50 of 0.0305 ± 0.00148 µM. Same read-out and setting: next, `COc1cc(NC(=O)C2=C(C)NC(C)=C(C(=O)Nc3cc(OC)c(Cl)cc3OC)C2c2ccc(Cl)cc2)c(OC)cc1Cl` [HD-7, N ^3,N^5-Bis(4-chloro-2,5-dimethoxyphenyl)-4-(4-chlorophenyl)-2,6-dimethyl-1,4-dihydropyridine-3,5-dicarboxamide]: 0.0265 ± 0.00142 µM. `COc1cc(NC(=O)C2=C(C)NC(C)=C(C(=O)Nc3cc(OC)c(Cl)cc3OC)C2c2cccc(Cl)c2)c(OC)cc1Cl` [HD-8, N ^3,N^5-Bis(4-chloro-2,5-dimethoxyphenyl)-4-(3-chlorophenyl)-2,6-dimethyl-1,4-dihydropyridine-3,5-dicarboxamide] came in with an IC50 of 0.0159 ± 0.0012 µM.

In a further assay the test system is MCF-7 breast cancer cells. As to the kind of experiment: MTT cytotoxicity assay on MCF-7 cells. Conditions: Homo sapiens, MCF7, read-out: MCF-7 (IC50). In kind it is cell-based. Background: Tetrazolium dyes change colour on reduction, which living cells bring about.
Take `COc1ccc(NC(=O)C2=C(C)NC(C)=C(C(=O)Nc3ccc(OC)cc3OC)C2c2ccccc2)c(OC)c1` [HD-1, N ^3,N^5-Bis(2,4-dimethoxyphenyl)-2,6-dimethyl-4-phenyl-1,4-dihydropyridine-3,5-dicarboxamide]: the IC50 was 66.5 µM. Still for that read-out and setting: next, `COc1ccc(NC(=O)C2=C(C)NC(C)=C(C(=O)Nc3ccc(OC)cc3OC)C2c2ccc(Cl)cc2)c(OC)c1` [HD-2, 4-(4-Chlorophenyl)-N^3,N^5-bis(2,4-dimethoxyphenyl)-2,6-dimethyl-1,4-dihydropyridine-3,5-dicarboxamide]: 51.4 µM; `COc1ccc(NC(=O)C2=C(C)NC(C)=C(C(=O)Nc3ccc(OC)cc3OC)C2c2cccc(Cl)c2)c(OC)c1` [HD-3, 4-(3-Chlorophenyl)-N^3,N^5-bis(2,4-dimethoxyphenyl)-2,6-dimethyl-1,4-dihydropyridine-3,5-dicarboxamide]: 59.4 µM; `COc1ccc(NC(=O)C2=C(C)NC(C)=C(C(=O)Nc3ccc(OC)cc3OC)C2c2ccco2)c(OC)c1` [HD-4, N ^3,N^5-Bis(2,4-dimethoxyphenyl)-4-(furan-2-yl)-2,6-dimethyl-1,4-dihydropyridine-3,5-dicarboxamide]: 36 µM.

Consider `COc1ccc(NC(=O)C2=C(C)NC(C)=C(C(=O)Nc3ccc(OC)cc3OC)C2c2ccc(O)cc2)c(OC)c1` [HD-5, N ^3,N^5-Bis(2,4-dimethoxyphenyl)-4-(4-hydroxyphenyl)-2,6-dimethyl-1,4-dihydropyridine-3,5-dicarboxamide], for which the IC50 stood at 62.1 µM.

Take `COc1cc(NC(=O)C2=C(C)NC(C)=C(C(=O)Nc3cc(OC)c(Cl)cc3OC)C2c2ccccc2)c(OC)cc1Cl` [HD-6, N ^3,N^5-Bis(4-chloro-2,5-dimethoxyphenyl)-2,6-dimethyl-4-phenyl-1,4-dihydropyridine-3,5-dicarboxamide]: the IC50 was determined as 21.3 µM.

Take `COc1cc(NC(=O)C2=C(C)NC(C)=C(C(=O)Nc3cc(OC)c(Cl)cc3OC)C2c2ccc(Cl)cc2)c(OC)cc1Cl` [HD-7, N ^3,N^5-Bis(4-chloro-2,5-dimethoxyphenyl)-4-(4-chlorophenyl)-2,6-dimethyl-1,4-dihydropyridine-3,5-dicarboxamide]: the IC50 stood at 16.8 µM. The same measure, in the same setting: next, `COc1cc(NC(=O)C2=C(C)NC(C)=C(C(=O)Nc3cc(OC)c(Cl)cc3OC)C2c2cccc(Cl)c2)c(OC)cc1Cl` [HD-8, N ^3,N^5-Bis(4-chloro-2,5-dimethoxyphenyl)-4-(3-chlorophenyl)-2,6-dimethyl-1,4-dihydropyridine-3,5-dicarboxamide]: 18.3 µM. Still for that read-out and setting: in the case of `COc1cc(NC(=O)C2=C(C)NC(C)=C(C(=O)Nc3cc(OC)c(Cl)cc3OC)C2c2ccco2)c(OC)cc1Cl` [HD-9, N ^3,N^5-Bis(4-chloro-2,5-dimethoxyphenyl)-4-(furan-2-yl)-2,6-dimethyl-1,4-dihydropyridine-3,5-dicarboxamide] it was 57.7 µM; in that of `COc1cc(NC(=O)C2=C(C)NC(C)=C(C(=O)Nc3cc(OC)c(Cl)cc3OC)C2c2ccc(O)cc2)c(OC)cc1Cl` [HD-10, N ^3,N^5-Bis(4-chloro-2,5-dimethoxyphenyl)-4-(4-hydroxyphenyl)-2,6-dimethyl-1,4-dihydropyridine-3,5-dicarboxamide], 39.6 µM; in that of `COc1ccc(NC(=O)C2=C(C)NC(C)=C(C(=O)Nc3cc(OC)c(Cl)cc3OC)C2c2ccccc2)c(OC)c1` (stereo not shown) [HD-11, N ^3-(4-Chloro-2,5-dimethoxyphenyl)-N^5-(2,4-dimethoxyphenyl)-2,6-dimethyl-4-phenyl-1,4-dihydropyridine-3,5-dicarboxamide], 42.4 µM. On to `COc1ccc(NC(=O)C2=C(C)NC(C)=C(C(=O)Nc3cc(OC)c(Cl)cc3OC)C2c2ccc(Cl)cc2)c(OC)c1` (stereo not shown) [HD-12, N ^3-(4-Chloro-2,5-dimethoxyphenyl)-4-(4-chlorophenyl)-N^5-(2,4-dimethoxyphenyl)-2,6-dimethyl-1,4-dihydropyridine-3,5-dicarboxamide], for which the IC50 came out at 37.5 µM.

For `COc1ccc(NC(=O)C2=C(C)NC(C)=C(C(=O)Nc3cc(OC)c(Cl)cc3OC)C2c2cccc(Cl)c2)c(OC)c1` (stereo not shown) [HD-13, N ^3-(4-Chloro-2,5-dimethoxyphenyl)-4-(3-chlorophenyl)-N^5-(2,4-dimethoxyphenyl)-2,6-dimethyl-1,4-dihydropyridine-3,5-dicarboxamide], the half-inhibitory concentration (IC50) turned out to be 44.1 µM. `COc1ccc(NC(=O)C2=C(C)NC(C)=C(C(=O)Nc3cc(OC)c(Cl)cc3OC)C2c2ccco2)c(OC)c1` (stereo not shown) [HD-14, N ^3-(4-Chloro-2,5-dimethoxyphenyl)-N^5-(2,4-dimethoxyphenyl)-4-(furan-2-yl)-2,6-dimethyl-1,4-dihydropyridine-3,5-dicarboxamide]: the IC50 was 52.3 µM.

`COc1ccc(NC(=O)C2=C(C)NC(C)=C(C(=O)Nc3cc(OC)c(Cl)cc3OC)C2c2ccc(O)cc2)c(OC)c1` (stereo not shown) [HD-15, N ^3-(4-Chloro-2,5-dimethoxyphenyl)-N^5-(2,4-dimethoxyphenyl)-4-(4-hydroxyphenyl)-2,6-dimethyl-1,4-dihydropyridine-3,5-dicarboxamide]: the IC50 is 42.2 µM.

For `CS(=O)(=O)CCNCc1ccc(-c2ccc3ncnc(Nc4ccc(OCc5cccc(F)c5)c(Cl)c4)c3c2)o1` [Lapatinib, reference compound], the IC50 came to 2.02 µM.
